# Laboratory results reported in patent US8399482B2, “6-substituted isoquinolines and isoquinolinones” (Sanofi, priority 2008, dated 2013).
# How the values were obtained:
# Assay type in all cases: biochemical
# [1] = target: T1, human recombinant ROCK II (Homo sapiens, UniProt O75116); assay: Determination of Rho kinase inhibition (ROCK II, Caliper peptide phosphorylation assay); conditions: respective form (salt or free base) as obtained in the examples, 60 min at 32° C.
# T1 construct: recombinant human ROCK-II residues 11-552; His6 (N); purchased Millipore GmbH, Schwalbach, Germany
# T1 sequence (O75116 11-552): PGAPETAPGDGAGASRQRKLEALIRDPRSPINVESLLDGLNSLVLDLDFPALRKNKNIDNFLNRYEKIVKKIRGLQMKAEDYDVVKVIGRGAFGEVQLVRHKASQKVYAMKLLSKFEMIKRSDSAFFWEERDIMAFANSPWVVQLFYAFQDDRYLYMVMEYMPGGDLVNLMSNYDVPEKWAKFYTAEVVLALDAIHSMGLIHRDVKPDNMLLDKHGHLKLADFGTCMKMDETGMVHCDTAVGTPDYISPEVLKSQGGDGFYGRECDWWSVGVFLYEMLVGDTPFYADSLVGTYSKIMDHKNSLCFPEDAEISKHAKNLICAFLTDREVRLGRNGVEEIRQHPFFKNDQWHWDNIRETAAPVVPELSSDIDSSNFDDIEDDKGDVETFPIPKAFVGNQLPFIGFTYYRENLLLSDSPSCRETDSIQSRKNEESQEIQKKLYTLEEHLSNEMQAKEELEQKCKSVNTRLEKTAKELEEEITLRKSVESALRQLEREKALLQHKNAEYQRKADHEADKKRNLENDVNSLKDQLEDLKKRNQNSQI
# Method: To measure Rho-kinase inhibition, IC50 values were determined according to the following protocol:
# Active human recombinant ROCK II (N-terminal His6-tagged recombinant human ROCK-II residues 11-552) was purchased from Millipore GmbH, Schwalbach, Germany. The peptide substrate, Fluorescein-[…]-COOH, was obtained from JPT Peptide Technologies, Berlin, Germany. Adenosine-5′-triphosphate (ATP), bovine serum albumine (BSA), dimethylsulphoxide (DMSO), 4-(2-hydroxyethyl)piperazine-1-ethanesulfonic acid (Hepes), Brij-35, dithiothreitol (DTT) and Pluronic F-68 were purchased from Sigma-Aldrich, Munich, Germany. Tris(hydroxymethyl)-aminomethane (Tris), magnesium chloride, NaOH, 1M HCl and EDTA were obtained from Merck Biosciences, Darmstadt, Germany. “Complete” protease inhibitor was from Roche Diagnostics, Mannheim, Germany. Test compounds were diluted to the appropriate concentrations in buffer 1 (25 mM Tris-HCl, pH 7.4, 5 mM MgCl2, 2 mM DTT, 0.02% (w/v) BSA, 0.01% Pluronic F-68 and 3% DMSO). The ROCK II enzyme was diluted to a concentration of 100 ng/mL in buffer 2 (25 mM Tris-HCl, pH 7.4, 5 mM MgCl2, 2 mM DTT and 0.02% (w/v) BSA). The peptide substrate and ATP were diluted to concentrations of 3 μM and 120 μM, respectively, in the buffer 2. Two μl of the compound solution were mixed with 2 μl of the diluted enzyme in a 384-well small volume microtiter plate (Greiner, Bio-One, Frickenhausen, Germany), and the kinase reaction was initiated by addition of 2 μl of the solution containing peptide substrate and ATP. After 60 min incubation at 32° C., the reaction was stopped by addition of 20 μl of a solution containing 100 mM Hepes-NaOH, pH 7.4, 0.015% (v/v) Brij-35, 45 mM EDTA and 0.227% chip coating reagent 1 (Caliper Lifescience Inc, Hopkinton, Mass.). Phosphorylation of the substrate peptide was then detected on a Caliper 3000 instrument essentially as described by Pommereau et al (J. Biomol. Screening 2004, 9(5), 409-416). Separation conditions were as follows: Pressure −1.3 psi, upstream voltage −1562 V, downstream voltage −500 V, sample sip time 200 ms. Positive controls (buffer 1 instead of compound) and negative controls (buffer 1 instead of compound and buffer 2 instead of ROCK II) were run in parallel on each plate.
# The following products/compounds were tested in said assay by using the respective form (salt or free base) obtained as in the examples described above and the following activities were measured
# [2] = target: T2, recombinant human PKA (Homo sapiens, UniProt P17612); assay: Determination of Protein Kinase A inhibition (selectivity); conditions: from IC50 values
# T2 construct: recombinant human PKA (residues 1-351, N-terminal His-tag); His-tag (N); purchased Invitrogen, Karlsruhe, Germany
# Method: (§1) 2) Determination of Protein Kinase a and Protein Kinase G Inhibition
# (§2) To measure PKA and PKG1-beta inhibition, IC50 values were determined according to the following protocol:
# (§3) Active recombinant human PKG1-beta (full-length, with N-terminal His-tag) was purchased from Millipore GmbH, Schwalbach, Germany. Active recombinant human PKA (residues 1-351, N-terminal His-tag) was obtained from Invitrogen, Karlsruhe, Germany. The peptide substrate, Fluorescein-[…]-COOH, was obtained from JPT Peptide Technologies, Berlin, Germany. Adenosine-5′-triphosphate (ATP), bovine serum albumine (BSA), dimethylsulphoxide (DMSO), 4-(2-Hydroxyethyl)piperazine-1-ethanesulfonic acid (Hepes), Brij-35, dithiothreitol (DTT) and Pluronic F-68 were purchased from Sigma-Aldrich, Munich, Germany. Tris(hydroxymethyl)-aminomethane (Tris), magnesium chloride, NaOH, 1M HCl and EDTA were obtained from Merck Biosciences, Darmstadt, Germany. “Complete” protease inhibitor was from Roche Diagnostics, Mannheim, Germany. Test compounds were diluted to the appropriate concentrations in buffer 1 (25 mM Tris-HCl, pH 7.4, 5 mM MgCl2, 2 mM DTT, 0.02% (w/v) BSA, 0.01% Pluronic F-68 and 3% DMSO). PKG1-beta and PKA were diluted to concentrations of 150 ng/ml and 30 ng/ml, respectively, in buffer 2. The peptide substrate and ATP were diluted to concentrations of 3 μM and 120 μM, respectively, in the buffer 2. Two μl of the compound solution were mixed with 2 μl of the diluted enzyme in a 384-well small volume microtiter plate (Greiner, Bio-One, Frickenhausen, Germany), and the kinase reaction was initiated by addition of 2 μl of the solution containing peptide substrate and ATP. After 60 min incubation at 32° C., the reaction was stopped by addition of 20 μl of a solution containing 100 mM Hepes-NaOH, pH 7.4, 0.015% (v/v) Brij-35, 45 mM EDTA and 0.227% chip coating reagent 1 (Caliper Lifescience Inc, Hopkinton, Mass.). Phosphorylation of the substrate peptide was then detected on a Caliper 3000 instrument essentially as described by Pommereau et al (J. Biomol. Screening 9(5), 409-416, 2004). Separation conditions were as follows: Pressure −1.3 psi, upstream voltage −1562 V, downstream voltage −500 V, sample sip time 200 ms, Positive controls (buffer 1 instead of compound) and negative controls (buffer 1 instead of compound and buffer 2 instead of kinase solution) were run in parallel on each plate. The following products/compounds were tested in said assay by using the respective form (salt or free base) obtained as in the examples described above and the following activities were measured.
# [3] = target: T3, recombinant human PKG1-beta (Homo sapiens, UniProt Q13976); assay: Determination of Protein Kinase G inhibition (selectivity); conditions: from IC50 values
# T3 construct: PKG1-beta (full-length, with N-terminal His-tag); His-tag (N); purchased Millipore GmbH, Schwalbach, Germany
# T3 sequence (Q13976 1-686 isoform Q13976-2): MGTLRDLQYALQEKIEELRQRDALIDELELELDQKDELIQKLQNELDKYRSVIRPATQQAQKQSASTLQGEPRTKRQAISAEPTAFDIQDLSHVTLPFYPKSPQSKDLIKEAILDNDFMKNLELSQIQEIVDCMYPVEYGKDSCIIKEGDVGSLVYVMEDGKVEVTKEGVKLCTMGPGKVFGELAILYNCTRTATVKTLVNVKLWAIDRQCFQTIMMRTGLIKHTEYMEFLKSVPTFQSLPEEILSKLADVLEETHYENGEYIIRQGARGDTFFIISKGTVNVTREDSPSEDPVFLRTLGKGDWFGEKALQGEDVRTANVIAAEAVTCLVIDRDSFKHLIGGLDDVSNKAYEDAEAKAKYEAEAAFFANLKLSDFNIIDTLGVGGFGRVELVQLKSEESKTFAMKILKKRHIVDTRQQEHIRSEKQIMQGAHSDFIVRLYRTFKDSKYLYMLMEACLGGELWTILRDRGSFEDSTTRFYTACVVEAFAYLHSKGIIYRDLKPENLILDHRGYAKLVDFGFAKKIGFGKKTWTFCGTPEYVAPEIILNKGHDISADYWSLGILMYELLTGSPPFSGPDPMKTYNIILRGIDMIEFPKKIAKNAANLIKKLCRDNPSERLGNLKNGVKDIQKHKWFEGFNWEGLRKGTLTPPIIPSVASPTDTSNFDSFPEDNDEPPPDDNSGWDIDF
# Method: as §1, §2, §3
IC50 [1] [nM],Selectivity against PKA [2] [fold],Selectivity against PKG [3] [fold],SMILES
10 to 100,>300,>10,"CCC(N)[C@]1(CC)CC[C@H](Oc2cc3cc[nH]c(=O)c3cc2F)CC1 (stereo partly drawn) [Example 50, cis-6-[4-(1-Amino-propyl)-4-ethyl-cyclohexyloxy]-7-fluoro-2H-isoquinolin-1-one]"
≤ 10,>1000,>300,"NC(C1CC1)[C@]1(CC2CCOCC2)CC[C@H](Oc2cc3cc[nH]c(=O)c3cc2Cl)CC1 (stereo partly drawn) [Example 68, cis-6-[4-(Amino-cyclopropyl-methyl)-4-(tetrahydro-pyran-4-ylmethyl)-cyclohexyloxy]-7-chloro-2H-isoquinolin-1-one]"
≤ 10,>1000,>300,"CC(C)CC(N)[C@]1(CC2CC2)CC[C@H](Oc2cc3cc[nH]c(=O)c3cc2Cl)CC1 (stereo partly drawn) [Example 64, cis-6-[4-(1-Amino-3-methyl-butyl)-4-cyclopropyl-methyl-cyclohexyloxy]-7-chloro-2H-isoquinolin-1-one]"
10 to 100,>100,>300,"C[C@]1(C(N)c2ccccc2)CC[C@@H](Oc2cc3cc[nH]c(=O)c3cc2Cl)CC1 (stereo partly drawn) [Example 61, cis-6-[4-(Amino-phenyl-methyl)-4-methyl-cyclohexyloxy]-7-chloro-2H-isoquinolin-1-one]"
≤ 10,>1000,>300,"CCC(N)[C@]1(CC)CC[C@H](Oc2cc3cc[nH]c(=O)c3cc2Cl)CC1 (stereo partly drawn) [Example 34, cis-6-[4-(1-Amino-propyl)-4-ethyl-cyclohexyloxy]-7-chloro-2H-isoquinolin-1-one]"

# The remaining lines, values behind:
SMILES,IC50 [1] [nM],Selectivity against PKA [2] [fold],Selectivity against PKG [3] [fold]
"CCC(N)C1(C(C)C)CCC(Oc2cc3cc[nH]c(=O)c3cc2Cl)CC1 (single isomer, unassigned) [Example 9, 6-[4-(1-Amino-propyl)-4-isopropyl-cyclohexyloxy]-7-chloro-2H-isoquinolin-1-one]",10 to 100,>10,>10
"CCCC1(C(N)C2CC2)CCC(Oc2cc3cc[nH]c(=O)c3cc2Cl)CC1 (single isomer, unassigned) [Example 6, 6-[4-(Amino-cyclopropyl-methyl)-4-propyl-cyclohexyloxy]-7-chloro-2H-isoquinolin-1-one]",≤ 10,>1000,>1000
"CCC(N)[C@]1(OC)CC[C@H](Oc2cc3cc[nH]c(=O)c3cc2Cl)CC1 (stereo partly drawn) [Example 58, cis-6-[4-(1-Amino-propyl)-4-methoxy-cyclohexyloxy]-7-chloro-2H-isoquinolin-1-one]",10 to 100,>300,>300
"CCC(N)C1(CC2CC2)CCC(Oc2cc3cc[nH]c(=O)c3cc2Cl)CC1 (single isomer, unassigned) [Example 13, 6-[4-(1-Amino-propyl)-4-cyclopropyl-methyl-cyclohexyl-oxy]-7-chloro-2H-isoquinolin-1-one]",10 to 100,>10,>10
"NC(C1CC1)C1(CC2CC2)CCC(Oc2cc3cc[nH]c(=O)c3cc2Cl)CC1 (single isomer, unassigned) [Example 17, 6-[4-(Amino-cyclopropyl-methyl)-4-cyclopropylmethyl-cyclohexyloxy]-7-chloro-2H-isoquinolin-1-one]",10 to 100,>10,>10
"CCC(N)[C@]1(C2CCS(=O)(=O)CC2)CC[C@H](Oc2cc3cc[nH]c(=O)c3cc2Cl)CC1 (stereo partly drawn) [Example 99, cis-6-[4-(1-amino-propyl)-4-(1,1-dioxo-tetrahydrothiopyran-4-yl)-cyclohexyloxy]-7-chloro-2H-isoquinolin-1-one]",≤ 10,>1000,>300
"CCC(N)C1(COC(C)C)CCC(Oc2cc3cc[nH]c(=O)c3cc2Cl)CC1 (single isomer, unassigned) [Example 19, 6-[4-(1-Amino-propyl)-4-isopropoxymethyl-cyclohexyloxy]-7-chloro-2H-isoquinolin-1-one]",10 to 100,>1000,>300
"CCC(N)C1(Cc2ccccc2)CCC(Oc2cc3cc[nH]c(=O)c3cc2Cl)CC1 (single isomer, unassigned) [Example 31, 6-[4-(1-Amino-propyl)-4-benzyl-cyclohexyloxy]-7-chloro-2H-isoquinolin-1-one]",–,>10,>100
"CCC1(C(C)N)CCC(Oc2cc3cc[nH]c(=O)c3cc2Cl)CC1 (single isomer, unassigned) [Example 4, 6-[4-(1-Amino-ethyl)-4-ethyl-cyclohexyloxy]-7-chloro-2H-isoquinolin-1-one]",10 to 100,>300,>100
